Data: ChEMBL document CHEMBL5291721, “A preclinical secondary pharmacology resource illuminates target-adverse drug reaction associations of marketed drugs” (Nat Commun, 2023)
*1 amine or outer side, *2 acyl side, *3 side chain or, on linkers, in order; H or OH if unused. Where a SMILES comes first, the peptide text is derived from it. Bridges are numbered along the chain shown (N, C = ends). [ ]: non-standard residue; d: D form. The star is where a group is joined. hTyr(3S-OH,4S-OH,3'-OSO3H) = N[C@H](C(=O)O)[C@H](O)[C@@H](O)c1ccc(O)c(OS(=O)(=O)O)c1; Orn(4R-OH,5R-OH) = O=C([C@H](C[C@@H](O)[C@@H](O)N[*:3])N[*:1])[*:2]; Pro(3S-OH,4S-Me) = C[C@H]1CN[C@H](C(=O)O)[C@H]1O; X1 = CCCCCOc1ccc(-c2cc(-c3ccc(C(=O)*)cc3)no2)cc1; Gln(3R-OH) = NC(=O)C[C@@H](O)[C@H](N)C(=O)O; Hyp = O=C(O)[C@@H]1C[C@@H](O)CN1

Legend:
[1] = molecular target: T1, Alpha-1A adrenergic receptor (Homo sapiens, UniProt P35348); format: functional, cell-based
T1 sequence (P35348 whole entry): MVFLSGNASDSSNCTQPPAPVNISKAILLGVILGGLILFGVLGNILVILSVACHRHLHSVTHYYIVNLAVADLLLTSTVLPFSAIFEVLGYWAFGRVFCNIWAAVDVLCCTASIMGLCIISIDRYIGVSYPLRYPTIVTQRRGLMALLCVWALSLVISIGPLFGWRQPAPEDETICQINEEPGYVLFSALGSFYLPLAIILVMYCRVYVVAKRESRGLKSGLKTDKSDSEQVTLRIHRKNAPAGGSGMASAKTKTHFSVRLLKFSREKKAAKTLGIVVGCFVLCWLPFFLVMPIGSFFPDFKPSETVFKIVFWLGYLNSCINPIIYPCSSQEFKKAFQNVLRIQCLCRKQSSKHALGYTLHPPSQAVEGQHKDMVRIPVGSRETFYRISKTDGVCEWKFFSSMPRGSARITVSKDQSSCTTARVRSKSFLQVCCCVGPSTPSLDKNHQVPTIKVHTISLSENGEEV

Estrogen receptor = molecular target: T2, Estrogen receptor (Homo sapiens, UniProt P03372)
T2 sequence (P03372 whole entry): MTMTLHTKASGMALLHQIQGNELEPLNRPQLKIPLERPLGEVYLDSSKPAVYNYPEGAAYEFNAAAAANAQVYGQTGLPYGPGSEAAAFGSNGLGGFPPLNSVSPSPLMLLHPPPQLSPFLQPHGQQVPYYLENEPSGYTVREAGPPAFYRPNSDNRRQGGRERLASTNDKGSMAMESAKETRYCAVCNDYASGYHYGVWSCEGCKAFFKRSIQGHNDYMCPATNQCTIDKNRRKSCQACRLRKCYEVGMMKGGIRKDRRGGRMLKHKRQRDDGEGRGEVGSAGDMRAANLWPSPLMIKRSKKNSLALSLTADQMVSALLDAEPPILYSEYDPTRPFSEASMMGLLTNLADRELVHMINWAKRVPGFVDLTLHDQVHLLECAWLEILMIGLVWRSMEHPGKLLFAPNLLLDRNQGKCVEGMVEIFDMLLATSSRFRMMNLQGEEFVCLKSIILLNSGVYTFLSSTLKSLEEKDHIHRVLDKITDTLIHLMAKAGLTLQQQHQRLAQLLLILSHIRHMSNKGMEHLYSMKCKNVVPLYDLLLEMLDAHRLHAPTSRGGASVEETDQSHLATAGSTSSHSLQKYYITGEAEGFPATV

[2] = molecular target: T3, Alpha-2A adrenergic receptor (Homo sapiens, UniProt P08913); format: functional, cell-based
T3 sequence (P08913 whole entry): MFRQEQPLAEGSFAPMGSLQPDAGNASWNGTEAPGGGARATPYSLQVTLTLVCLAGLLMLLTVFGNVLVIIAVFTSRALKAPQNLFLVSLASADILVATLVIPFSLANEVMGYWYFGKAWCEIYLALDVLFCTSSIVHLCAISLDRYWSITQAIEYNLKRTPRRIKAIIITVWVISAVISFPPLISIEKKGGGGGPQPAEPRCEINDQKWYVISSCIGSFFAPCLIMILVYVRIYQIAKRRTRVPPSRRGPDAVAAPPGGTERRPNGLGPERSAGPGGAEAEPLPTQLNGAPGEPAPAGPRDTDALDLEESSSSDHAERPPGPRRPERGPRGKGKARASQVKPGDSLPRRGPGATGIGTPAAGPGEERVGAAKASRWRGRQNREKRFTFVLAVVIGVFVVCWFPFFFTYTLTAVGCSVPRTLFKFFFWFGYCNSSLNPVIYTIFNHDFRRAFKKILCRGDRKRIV

Cannabinoid receptor 1 [3] = molecular target: T4, Cannabinoid receptor 1 (Homo sapiens, UniProt P21554); format: functional, cell-based
Cannabinoid receptor 1 [4] = molecular target: T4, Cannabinoid receptor 1; format: functional, cell-based; remark: listed apart in the source
[5] = molecular target: 5-hydroxytryptamine receptor 2B (Homo sapiens, UniProt P41595); format: functional, cell-based
[6] = molecular target: cGMP-inhibited 3',5'-cyclic phosphodiesterase 3A (Homo sapiens, UniProt Q14432); format: functional
[7] = molecular target: Voltage-dependent L-type calcium channel subunit alpha-1C (Rattus norvegicus, UniProt P22002); format: functional
[8] = molecular target: T5, Gastrin/cholecystokinin type B receptor (Homo sapiens, UniProt P32239)
T5 sequence (P32239 whole entry): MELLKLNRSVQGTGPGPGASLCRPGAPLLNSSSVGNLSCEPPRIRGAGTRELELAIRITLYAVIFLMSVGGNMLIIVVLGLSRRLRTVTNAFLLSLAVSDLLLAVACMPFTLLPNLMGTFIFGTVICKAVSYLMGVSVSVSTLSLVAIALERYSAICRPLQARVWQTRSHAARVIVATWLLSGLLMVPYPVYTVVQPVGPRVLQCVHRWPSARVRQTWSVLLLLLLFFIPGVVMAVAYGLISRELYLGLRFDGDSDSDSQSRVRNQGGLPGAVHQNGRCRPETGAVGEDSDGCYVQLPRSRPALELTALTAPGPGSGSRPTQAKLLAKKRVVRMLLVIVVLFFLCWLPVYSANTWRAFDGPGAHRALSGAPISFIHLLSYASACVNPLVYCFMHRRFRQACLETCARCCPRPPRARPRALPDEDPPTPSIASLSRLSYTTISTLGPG

Endothelin-1 receptor = molecular target: T6, Endothelin-1 receptor (Homo sapiens, UniProt P25101)
T6 sequence (P25101 whole entry): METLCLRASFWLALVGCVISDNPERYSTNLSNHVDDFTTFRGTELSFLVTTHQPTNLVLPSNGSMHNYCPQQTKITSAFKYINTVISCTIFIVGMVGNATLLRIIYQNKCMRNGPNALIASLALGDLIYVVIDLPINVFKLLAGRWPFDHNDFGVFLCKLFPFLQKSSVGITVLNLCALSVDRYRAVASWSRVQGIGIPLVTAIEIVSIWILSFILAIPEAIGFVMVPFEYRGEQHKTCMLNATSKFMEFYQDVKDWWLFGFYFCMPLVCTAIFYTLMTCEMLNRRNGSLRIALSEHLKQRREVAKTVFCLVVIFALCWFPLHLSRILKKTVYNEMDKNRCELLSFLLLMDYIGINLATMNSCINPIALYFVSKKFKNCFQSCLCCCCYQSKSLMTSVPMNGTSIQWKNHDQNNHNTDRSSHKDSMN
Further: assay procedure not described here.

T4 sequence (P21554 whole entry): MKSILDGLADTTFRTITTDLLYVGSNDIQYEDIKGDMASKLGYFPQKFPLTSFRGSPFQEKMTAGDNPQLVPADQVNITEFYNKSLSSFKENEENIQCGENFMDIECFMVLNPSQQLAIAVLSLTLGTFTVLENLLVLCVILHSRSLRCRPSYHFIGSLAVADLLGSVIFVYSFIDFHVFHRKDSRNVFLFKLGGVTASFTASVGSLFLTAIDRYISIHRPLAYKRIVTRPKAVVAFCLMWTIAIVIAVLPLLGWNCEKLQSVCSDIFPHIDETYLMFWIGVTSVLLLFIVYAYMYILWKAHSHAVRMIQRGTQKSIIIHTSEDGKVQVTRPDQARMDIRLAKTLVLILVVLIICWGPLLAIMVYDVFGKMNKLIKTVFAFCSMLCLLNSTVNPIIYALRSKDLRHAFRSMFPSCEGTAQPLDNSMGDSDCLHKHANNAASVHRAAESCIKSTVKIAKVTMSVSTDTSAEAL
5-hydroxytryptamine receptor 2B, sequence (P41595 whole entry): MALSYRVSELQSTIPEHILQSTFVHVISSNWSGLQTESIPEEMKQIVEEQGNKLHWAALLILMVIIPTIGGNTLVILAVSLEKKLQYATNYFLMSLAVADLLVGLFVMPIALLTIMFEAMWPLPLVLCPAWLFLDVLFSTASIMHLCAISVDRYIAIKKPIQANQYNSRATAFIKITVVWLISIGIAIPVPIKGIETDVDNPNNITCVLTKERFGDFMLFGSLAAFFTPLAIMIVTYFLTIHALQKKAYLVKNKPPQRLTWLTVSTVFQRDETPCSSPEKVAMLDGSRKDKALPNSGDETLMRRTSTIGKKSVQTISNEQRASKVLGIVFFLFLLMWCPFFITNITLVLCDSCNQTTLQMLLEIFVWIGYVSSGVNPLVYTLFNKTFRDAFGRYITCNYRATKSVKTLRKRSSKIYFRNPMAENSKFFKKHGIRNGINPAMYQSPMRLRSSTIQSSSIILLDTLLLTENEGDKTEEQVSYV
cGMP-inhibited 3',5'-cyclic phosphodiesterase 3A, sequence (Q14432 whole entry): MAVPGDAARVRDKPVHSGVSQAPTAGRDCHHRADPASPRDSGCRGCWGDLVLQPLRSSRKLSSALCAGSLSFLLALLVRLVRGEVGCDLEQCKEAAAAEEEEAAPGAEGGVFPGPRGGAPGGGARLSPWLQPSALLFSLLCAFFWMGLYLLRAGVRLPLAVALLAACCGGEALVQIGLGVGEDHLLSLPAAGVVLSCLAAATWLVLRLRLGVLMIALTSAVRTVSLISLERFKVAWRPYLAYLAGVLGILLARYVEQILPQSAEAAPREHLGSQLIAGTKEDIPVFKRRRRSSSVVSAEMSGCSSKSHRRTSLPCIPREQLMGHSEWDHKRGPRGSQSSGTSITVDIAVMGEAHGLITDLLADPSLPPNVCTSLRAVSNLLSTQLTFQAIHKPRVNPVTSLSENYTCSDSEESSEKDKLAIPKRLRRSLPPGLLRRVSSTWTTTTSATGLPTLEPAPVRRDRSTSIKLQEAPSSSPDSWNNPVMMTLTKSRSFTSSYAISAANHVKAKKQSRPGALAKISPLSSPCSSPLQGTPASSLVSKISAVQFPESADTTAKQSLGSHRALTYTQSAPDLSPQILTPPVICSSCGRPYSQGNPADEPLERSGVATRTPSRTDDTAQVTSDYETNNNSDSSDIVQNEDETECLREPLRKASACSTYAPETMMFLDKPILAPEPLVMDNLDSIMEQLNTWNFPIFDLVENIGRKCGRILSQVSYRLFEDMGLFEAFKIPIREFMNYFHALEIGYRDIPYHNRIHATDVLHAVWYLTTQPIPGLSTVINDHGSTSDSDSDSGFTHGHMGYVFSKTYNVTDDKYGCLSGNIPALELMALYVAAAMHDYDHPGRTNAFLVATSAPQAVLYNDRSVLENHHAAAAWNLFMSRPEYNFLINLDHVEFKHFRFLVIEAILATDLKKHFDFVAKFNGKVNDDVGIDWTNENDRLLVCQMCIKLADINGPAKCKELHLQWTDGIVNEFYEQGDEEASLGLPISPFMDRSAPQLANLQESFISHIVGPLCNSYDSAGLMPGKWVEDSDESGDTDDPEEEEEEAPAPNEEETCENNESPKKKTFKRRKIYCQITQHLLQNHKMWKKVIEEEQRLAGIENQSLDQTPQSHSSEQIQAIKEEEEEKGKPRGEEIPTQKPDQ
Voltage-dependent L-type calcium channel subunit alpha-1C, sequence (P22002 whole entry): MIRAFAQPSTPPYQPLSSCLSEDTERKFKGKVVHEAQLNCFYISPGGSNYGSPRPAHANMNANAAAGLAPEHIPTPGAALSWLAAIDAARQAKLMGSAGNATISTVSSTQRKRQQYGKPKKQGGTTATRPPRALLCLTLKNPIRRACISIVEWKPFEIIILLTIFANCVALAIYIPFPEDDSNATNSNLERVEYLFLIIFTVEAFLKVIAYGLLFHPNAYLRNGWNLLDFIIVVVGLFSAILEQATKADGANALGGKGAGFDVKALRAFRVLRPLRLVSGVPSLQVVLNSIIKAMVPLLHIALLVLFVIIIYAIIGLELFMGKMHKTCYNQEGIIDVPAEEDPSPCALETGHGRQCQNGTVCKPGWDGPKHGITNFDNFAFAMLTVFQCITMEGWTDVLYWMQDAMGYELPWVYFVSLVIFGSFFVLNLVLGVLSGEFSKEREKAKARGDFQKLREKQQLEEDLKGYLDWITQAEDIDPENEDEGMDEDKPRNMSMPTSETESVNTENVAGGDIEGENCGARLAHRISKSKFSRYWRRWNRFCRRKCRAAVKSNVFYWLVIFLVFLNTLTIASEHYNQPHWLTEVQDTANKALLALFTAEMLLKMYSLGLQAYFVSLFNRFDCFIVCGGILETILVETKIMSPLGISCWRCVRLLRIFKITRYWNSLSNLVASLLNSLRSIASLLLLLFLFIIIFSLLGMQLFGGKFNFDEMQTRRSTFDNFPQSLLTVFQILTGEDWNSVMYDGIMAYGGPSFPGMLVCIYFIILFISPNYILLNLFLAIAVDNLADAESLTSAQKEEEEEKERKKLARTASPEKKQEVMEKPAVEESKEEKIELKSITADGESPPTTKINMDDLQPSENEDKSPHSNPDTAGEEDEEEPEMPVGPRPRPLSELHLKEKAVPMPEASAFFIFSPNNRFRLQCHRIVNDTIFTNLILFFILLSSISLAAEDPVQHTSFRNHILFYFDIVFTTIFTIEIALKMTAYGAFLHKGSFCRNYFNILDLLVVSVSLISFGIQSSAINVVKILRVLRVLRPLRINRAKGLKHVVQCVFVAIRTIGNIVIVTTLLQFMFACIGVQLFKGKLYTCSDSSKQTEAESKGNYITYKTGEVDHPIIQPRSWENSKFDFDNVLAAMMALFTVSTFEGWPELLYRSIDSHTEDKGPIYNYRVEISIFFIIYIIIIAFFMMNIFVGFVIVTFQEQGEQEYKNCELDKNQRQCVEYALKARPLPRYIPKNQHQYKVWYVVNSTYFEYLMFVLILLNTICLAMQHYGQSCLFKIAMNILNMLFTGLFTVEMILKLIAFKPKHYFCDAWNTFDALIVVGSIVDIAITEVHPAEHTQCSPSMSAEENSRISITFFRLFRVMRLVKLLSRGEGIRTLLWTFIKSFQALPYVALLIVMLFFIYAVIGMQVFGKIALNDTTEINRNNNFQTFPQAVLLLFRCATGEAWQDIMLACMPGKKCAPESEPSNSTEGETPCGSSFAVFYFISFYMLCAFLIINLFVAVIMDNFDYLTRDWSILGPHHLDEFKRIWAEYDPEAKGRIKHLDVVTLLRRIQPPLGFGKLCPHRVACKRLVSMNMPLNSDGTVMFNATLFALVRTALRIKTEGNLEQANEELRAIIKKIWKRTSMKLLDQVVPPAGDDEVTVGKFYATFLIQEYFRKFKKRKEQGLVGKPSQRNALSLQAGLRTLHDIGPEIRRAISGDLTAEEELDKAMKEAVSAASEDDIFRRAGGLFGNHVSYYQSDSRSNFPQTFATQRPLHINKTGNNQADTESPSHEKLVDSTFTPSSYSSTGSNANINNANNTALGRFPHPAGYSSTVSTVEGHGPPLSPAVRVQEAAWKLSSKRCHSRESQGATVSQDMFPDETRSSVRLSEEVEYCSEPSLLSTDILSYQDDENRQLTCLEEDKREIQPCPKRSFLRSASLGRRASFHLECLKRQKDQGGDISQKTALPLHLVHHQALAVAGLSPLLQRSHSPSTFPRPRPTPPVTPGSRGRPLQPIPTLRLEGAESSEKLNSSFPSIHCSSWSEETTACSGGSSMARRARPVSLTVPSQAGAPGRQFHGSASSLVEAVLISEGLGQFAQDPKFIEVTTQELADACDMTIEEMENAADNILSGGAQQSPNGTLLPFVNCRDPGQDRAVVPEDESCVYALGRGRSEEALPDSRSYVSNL

| SMILES | AC50 [1] | AC50 (Estrogen receptor) | other results |
| --- | --- | --- | --- |
| NC(=O)c1nc(F)c[nH]c1=O | > 30 µM | > 30 µM | – |
| CN(C)CCCN1C(=O)c2cc([N+](=O)[O-])ccc2Oc2ccccc21 | > 30 µM | > 30 µM | – |
| O=S(=O)(O)CCS [2-MERCAPTOETHANESULFONIC ACID] | > 30 µM | > 30 µM | – |
| O=C(O)COc1nn(Cc2ccccc2)c2ccccc12 [BENDAZAC] | > 30 µM | > 30 µM | – |
| Cc1ccc([C@@H]2O[C@H](CO)[C@@H](O)[C@H](O)[C@H]2O)cc1Cc1ccc(-c2ccc(F)cc2)s1 [CANAGLIFLOZIN ANHYDROUS] | > 30 µM | > 30 µM | – |
| O=C(O)CCCc1ccc(N(CCCl)CCCl)cc1 [CHLORAMBUCIL] | > 30 µM | > 30 µM | – |
| O=C(O)c1cc(=O)c2ccccc2o1 [CHROMOCARB] | > 30 µM | > 30 µM | – |
| CN(CC(=O)O)C(=N)N [CREATINE] | > 30 µM | > 30 µM | – |
| Cn1c(=O)c2c(ncn2CC(O)CO)n(C)c1=O (configuration not stated) [DYPHYLLINE] | > 30 µM | > 30 µM | – |
| C[C@]12CC[C@@H]3c4ccc(O)cc4CC[C@H]3[C@@H]1CC[C@@H]2OC(=O)CCC1CCCC1 [ESTRADIOL CYPIONATE] | > 30 µM | 0.379 µM | – |
| CCC(=O)O[C@@H](O[P@](=O)(CCCCc1ccccc1)CC(=O)N1C[C@H](C2CCCCC2)C[C@H]1C(=O)O)C(C)C [FOSINOPRIL] | – | > 30 µM | AC50 [2]: > 30 µM; AC50 (Cannabinoid receptor 1 [3]): > 30 µM; AC50 (Cannabinoid receptor 1 [4]): > 30 µM; AC50 [5]: > 30 µM; AC50 [6]: > 30 µM |
| CC1(C)O[C@@H]2C[C@H]3[C@@H]4CCC5=CC(=O)CC[C@]5(C)[C@@]4(F)[C@@H](O)C[C@]3(C)[C@]2(C(=O)CCl)O1 [HALCINONIDE] | > 30 µM | > 30 µM | – |
| C[C@]12CCC(=O)C=C1CC[C@@H]1[C@@H]2[C@@H](O)C[C@@]2(C)[C@H]1CC[C@]2(O)C(=O)COC(=O)CCC(=O)O [HYDROCORTISONE HEMISUCCINATE ANHYDROUS] | > 30 µM | > 30 µM | – |
| N=C(N)NCc1cccc([123I])c1 [IOBENGUANE I 123] | 10.7 µM | > 30 µM | – |
| CC(C)(N)C(=O)N[C@H](Cc1c[nH]c2ccccc12)C(=O)N[C@H](Cc1c[nH]c2ccccc12)NC=O [MACIMORELIN] | > 30 µM | > 30 µM | – |
| C=C1c2c(Cl)ccc(O)c2C(=O)C2=C(O)[C@]3(O)C(=O)C(C(N)=O)=C(O)[C@@H](N(C)C)[C@@H]3[C@@H](O)[C@H]12 [MECLOCYCLINE] | > 30 µM | > 30 µM | – |
| Cc1cc2c(OCC(O)CNC(C)C)cccc2[nH]1 (configuration not stated) [MEPINDOLOL] | > 30 µM | > 30 µM | – |
| CCCCCOc1ccc(-c2cc(-c3ccc(C(=O)N[C@H]4C[C@@H](O)[C@@H](O)NC(=O)[C@@H]5[C@@H](O)[C@@H](C)CN5C(=O)[C@H]([C@H](O)CC(N)=O)NC(=O)[C@H]([C@H](O)[C@@H](O)c5ccc(O)c(OS(=O)(=O)O)c5)NC(=O)[C@@H]5C[C@@H](O)CN5C(=O)[C@H]([C@@H](C)O)NC4=O)cc3)no2)cc1 [MICAFUNGIN] (X1-[Orn(4R-OH,5R-OH)]T[Hyp][hTyr(3S-OH,4S-OH,3'-OSO3H)][Gln(3R-OH)][Pro(3S-OH,4S-Me)]; lactam 1-C) | > 30 µM | 7.25 µM | – |
| CCOc1cc(N)c(Cl)cc1C(=O)NCC1CN(Cc2ccc(F)cc2)CCO1 (configuration not stated) [MOSAPRIDE] | > 30 µM | > 30 µM | – |
| CCOc1ccc2ccccc2c1C(=O)N[C@@H]1C(=O)N2[C@@H]1SC(C)(C)[C@@H]2C(=O)O [NAFCILLIN] | > 30 µM | > 30 µM | – |
| CN1CCC[C@H]1c1cccnc1 [NICOTINE] | > 30 µM | > 30 µM | – |
| CC(=O)Oc1ccccc1C(=O)Nc1ncc([N+](=O)[O-])s1 [NITAZOXANIDE] | – | > 30 µM | AC50 [2]: > 30 µM; AC50 [7]: > 30 µM; AC50 [8]: 10 µM; AC50 (Cannabinoid receptor 1 [3]): > 30 µM; AC50 (Cannabinoid receptor 1 [4]): > 30 µM; AC50 (Endothelin-1 receptor): 12 µM; AC50 [5]: 17 µM; AC50 [6]: > 30 µM |
| CN(C)c1cc(CNCC(C)(C)C)c(O)c2c1C[C@H]1C[C@H]3[C@H](N(C)C)C(O)=C(C(N)=O)C(=O)[C@@]3(O)C(O)=C1C2=O [OMADACYCLINE] | – | > 30 µM | AC50 [2]: > 30 µM; AC50 [8]: > 30 µM; AC50 (Cannabinoid receptor 1 [3]): > 30 µM; AC50 (Cannabinoid receptor 1 [4]): > 30 µM; AC50 (Endothelin-1 receptor): > 30 µM; AC50 [5]: > 30 µM; AC50 [6]: > 30 µM |
| CCCCCCCCCCC[C@@H](C[C@@H]1OC(=O)[C@H]1CCCCCC)OC(=O)[C@H](CC(C)C)NC=O [ORLISTAT] | > 30 µM | > 30 µM | – |
| O=C1[C@H]2CCCC[C@H]2C(=O)N1CCCCN1CCN(c2nsc3ccccc23)CC1 [PEROSPIRONE] | 0.003 µM | > 30 µM | – |
| CC(C)COc1ccc(CNC(=O)N(Cc2ccc(F)cc2)C2CCN(C)CC2)cc1 [PIMAVANSERIN] | 11.4 µM | > 30 µM | – |
| CNC(=O)c1cc(Oc2ccc(NC(=O)Nc3ccc(Cl)c(C(F)(F)F)c3)c(F)c2)ccn1 [REGORAFENIB] | – | > 30 µM | AC50 [6]: > 30 µM |
| CCCCCCCCNC(C)C(O)c1ccc(SC(C)C)cc1 (configuration not stated) [SULOCTIDIL] | – | 16.7 µM | – |
